17 molecules from patent US20250171414A1, “COMPOUND SERVING AS MASP-2 INHIBITOR, PHARMACEUTICAL COMPOSITION, PREPARATION METHOD THEREFOR, AND USE THEREOF” (WUHAN CREATERNA SCIENCE AND TECHNOLOGY CO., LTD., priority 2022, published 2025) can be followed below.

Like-named read-outs stand apart in the source and are kept apart here.

Data set [1] relates to lectin pathway (MBL) in human serum. Put plainly: Inhibition of activity of lectin pathway (MBL) in human serum (WIESLAB Complement System MBL Pathway kit). The data set is classed as biochemical. The note with it: 1% human serum. The protocol:
The inhibition of the activity of the lectin pathway (MBL) in human serum by compounds was detected using a WIESLAB® Complement System MBL Pathway kit (SVAR, COMPLMP320). Test compounds were each serially diluted in a buffer (Diluent MP), and 1% human serum was incubated with the diluted compound solution for 15 min at room temperature. 100 μL of the mixture was added to a microplate and incubated at 37° C. for 60 min. The liquid in the wells was discarded, and the microplate was washed three times with a washing solution. A Conjugate antibody solution was added at 100 μL/well, and the resulting mixture was incubated for 30 min at 25° C. The liquid in the wells was discarded, and the microplate was washed three times with a washing solution; a substrate solution was added at 100 μL/well, and the resulting mixture was incubated for 30 min at 25° C.; the terminator was added at 50 μL/well, and the absorbance at 405 nm was detected within 30 min by using a microplate reader.

Data set [2] can be described thus: In vivo pharmacokinetic study in SD rats. The note with it: clear. On the procedure:
After adaptive feeding, the SPF SD rats were each subjected to a single administration of 1 mg/kg or 3 mg/kg of the compound of the present disclosure intragastrically or by tail vein bolus injection. Plasma was collected at specific time points after administration, and the concentration of the compound in plasma was detected by LC-MS/MS (AB Sciex Qtrap 4500).

Where [3] appears, read: Sprague-Dawley (SD), rat, plasma, 1 mg/kg, IV, not fasting.
[4] abbreviates: Sprague-Dawley (SD), rat, plasma, 1 mg/kg, IV, not fasting, read-out: Cmax.
The mark [5] stands for this setting: Sprague-Dawley (SD), rat, plasma, 1 mg/kg, PO, fasting.
The mark [6] stands for this setting: Sprague-Dawley (SD), rat, plasma, 1 mg/kg, PO, fasting, read-out: Cmax.

In data set [1], `C[C@H](NC(=O)[C@H]1C=C(c2cccc(F)c2F)CCN1)C(=O)N[C@@H]1CCc2nc(N)ccc21` [Compound L084, (R)—N—((S)-1-(((R)-2-amino-6,7-dihydro-5H-cyclopenta[b]pyridin-5-yl)amino)-1-oxopropan-2-yl)-4-(2,3-difluorophenyl)-1,2,5,6-tetrahydropyridine-2-carboxamide] registered a half-inhibitory concentration (IC50) of 13.3 nM. Also, the exposure AUC(0-t) in data set [2] (setting [3]) was 26000 ± 1480 ng·h/mL; in data set [2] (setting [5]) it was 6880 ± 1430 ng·h/mL. Further, the half-life is 221 ± 13.2 min in data set [2] (setting [3]) and 185 ± 3 min in data set [2] (setting [5]). Also, the Cmax in data set [2] (setting [4]) amounted to 18200 ± 929 ng/mL; in data set [2] (setting [6]) it was 2140 ± 664 ng/mL.

Turning to `C[C@H](NC(=O)[C@H]1CC(C(F)(F)c2ccc(F)cc2)CN1)C(=O)N[C@@H]1CCc2nc(N)ccc21` (stereo partly drawn) [Compound L050, (2R)—N—((S)-1-(((R)-2-amino-6,7-dihydro-5H-cyclopenta[b]pyridin-5-yl)amino)-1-oxopropan-2-yl)-4-(difluoro (4-fluorophenyl)methyl) pyrrolidine-2-carboxamide], the half-maximal inhibitory concentration (IC50) in data set [1] came out at 2.64 nM. Further, in data set [2] (1 mg/kg, IV, not fasting), the AUClast worked out at 16723 ± 860 ng·h/mL, the Cmax stood at 27167 ± 1299 ng/mL and the T1/2 was found to be 2.13 ± 0.25 h. In data set [2] (1 mg/kg, PO, fasting), this molecule showed an AUClast of 3638 ± 335 ng·h/mL, a Cmax of 1373 ± 162 ng/mL and a T1/2 of 2.21 ± 0.27 h.

`C[C@H](NC(=O)[C@H]1C[C@H](Cc2cccc(Cl)c2)CN1)C(=O)NC1CCc2nc(N)ccc21` (stereo partly drawn) [Compound L014, (2R,4S)—N-((2S)-1-((2-amino-6,7-dihydro-5H-cyclopenta[b]pyridin-5-yl)amino)-1-oxopropan-2-yl)-4-(3-chlorobenzyl) pyrrolidine-2-carboxamide] registered an IC50 in data set [1] of 2.71 nM. In data set [2] (1 mg/kg, IV, not fasting), this molecule gave an AUClast of 89916 ± 4999 ng·h/mL, a Cmax of 24633 ± 167 ng/mL and a T1/2 of 7.81 ± 1.16 h. Moreover, in data set [2] (1 mg/kg, PO, fasting), the AUClast came out at 13180 ± 3323 ng·h/mL, the Cmax was 1967 ± 568 ng/mL and the T1/2 is 12.5 h.

The molecule `C[C@H](NC(=O)C1C=C(c2ccc(F)cc2)CCN1)C(=O)N[C@@H]1CCc2nc(N)ccc21` (single isomer, unassigned) [Compound L064-IS-02] registered an IC50 in data set [1] of 7.57 nM. For the same molecule, the AUC(0-t) in data set [2] (setting [3]) is 15600 ± 5150 ng·h/mL; in data set [2] (setting [5]) it was 2630 ± 245 ng·h/mL. Also, the half-life in data set [2] (setting [3]) is 251 ± 61.2 min; in data set [2] (setting [5]), 334 ± 87.6 min. Moreover, the peak concentration (Cmax) worked out at 16000 ± 2070 ng/mL in data set [2] (setting [4]) and 875 ± 155 ng/mL in data set [2] (setting [6]).

`C[C@H](NC(=O)[C@@H]1C=C(c2ccc(Cl)cc2)CCN1)C(=O)N[C@@H]1CCc2nc(N)ccc21` (single isomer, unassigned) [Compound L066-IS-02] gave an IC50 in data set [1] of 9.52 nM. In addition, the area under the curve AUC(0-t) in data set [2] (setting [3]) was found to be 17100 ± 4640 ng·h/mL; in data set [2] (setting [5]), 3240 ± 233 ng·h/mL. In addition, the half-life in data set [2] (setting [3]) was 271 ± 77.4 min; in data set [2] (setting [5]), 296 ± 30.6 min. For the same molecule, the highest concentration (Cmax) in data set [2] (setting [4]) was determined as 15900 ± 1070 ng/mL; in data set [2] (setting [6]), 1140 ± 164 ng/mL.

In data set [1], `C[C@H](NC(=O)[C@@H]1C=C(c2ccc(F)cc2F)CCN1)C(=O)N[C@@H]1CCc2nc(N)ccc21` (single isomer, unassigned) [Compound L076-IS-02] showed a half-inhibitory concentration (IC50) of 11.6 nM. Moreover, the AUC(0-t) in data set [2] (setting [3]) is 25900 ± 556 ng·h/mL; in data set [2] (setting [5]), 6970 ± 1210 ng·h/mL. Besides, the half-life is 353 ± 16.2 min in data set [2] (setting [3]) and 257 ± 16.8 min in data set [2] (setting [5]). In addition, the results for the Cmax in data set [2] (setting [4]) and in data set [2] (setting [6]) were 22500 ± 1030 ng/mL and 1350 ± 423 ng/mL, respectively.

In turn, `C[C@H](NC(=O)[C@H]1C[C@H](Cc2ccc(Cl)cc2)CN1)C(=O)NC1CCc2nc(N)ccc21` (stereo partly drawn) [Compound L003, (2R,4S)—N-((2S)-1-((2-amino-6,7-dihydro-5H-cyclopenta[b]pyridin-5-yl)amino)-1-oxopropan-2-yl)-4-(4-chlorobenzyl) pyrrolidine-2-carboxamide] showed a 50% inhibitory concentration (IC50) in data set [1] of 5.17 nM. In data set [2] (1 mg/kg, IV, not fasting), the AUClast turned out to be 95060 ± 770 ng·h/mL, the highest concentration (Cmax) is 25400 ± 1940 ng/mL and the T1/2 worked out at 5.84 ± 0.55 h. In data set [2] (1 mg/kg, PO, fasting), this molecule registered an AUClast of 11167 ± 1986 ng·h/mL, a peak concentration (Cmax) of 1777 ± 394 ng/mL and a T1/2 of 5.89 h.

Consider `C[C@H](NC(=O)[C@H]1C=C(c2ccccc2F)CCN1)C(=O)N[C@@H]1CCc2nc(N)ccc21` [Compound L082, (R)—N—((S)-1-(((R)-2-amino-6,7-dihydro-5H-cyclopenta[b]pyridin-5-yl)amino)-1-oxopropan-2-yl)-4-(2-fluorophenyl)-1,2,5,6-tetrahydropyridine-2-carboxamide], for which, in data set [1], the half-inhibitory concentration (IC50) worked out at 8.85 nM. Moreover, the figures for the AUC(0-t) in data set [2] (setting [3]) and in data set [2] (setting [5]) were 24700 ± 1030 ng·h/mL and 6110 ± 1210 ng·h/mL, respectively. Besides, the half-life in data set [2] (setting [3]) is 193 ± 11.4 min; in data set [2] (setting [5]) it was 171 ± 3 min. For the same molecule, the maximum concentration (Cmax) in data set [2] (setting [4]) is 18600 ± 1960 ng/mL; in data set [2] (setting [6]) it was 1430 ± 283 ng/mL.

In turn, “(2R)—N-((2S)-1-((2-amino-6,7-dihydro-5H-cyclopenta[b]pyridin-5-yl)amino)-1-oxopropan-2-yl)-4-phenyl-1,2,3,6-tetrahydropyridine-2-carboxamide [Compound L023-IS-02]” registered a half-inhibitory concentration (IC50) in data set [1] of 3.36 nM. Besides, in data set [2] (1 mg/kg, IV, not fasting), the AUClast was 21567 ± 2996 ng·h/mL, the Cmax worked out at 17400 ± 1026 ng/mL and the T1/2 was 3.93 ± 0.18 h. In data set [2] (3 mg/kg, PO, fasting), this molecule displayed an AUClast of 17996 ± 2579 ng·h/mL, a Cmax of 4340 ± 162 ng/mL and a T1/2 of 4.20 ± 0.54 h.

For `C[C@H](NC(=O)[C@H]1C[C@@H](c2cccc(C(F)(F)F)c2)CCN1)C(=O)NC1CCc2nc(N)ccc21` (stereo partly drawn) [Compound L044-IS-02, (2R,4S)-N-((2S)-1-((2-amino-6,7-dihydro-5H-cyclopenta[b]pyridin-5-yl)amino)-1-oxopropan-2-yl)-4-(3-(trifluoromethyl)phenyl)piperidine-2-carboxamide], the IC50 in data set [1] amounted to 1.83 nM.

Take `C[C@H](NC(=O)[C@@H]1C=C(c2cccc(Cl)c2)CCN1)C(=O)N[C@@H]1CCc2nc(N)ccc21` [Compound L081-IS-02, (S)—N—((S)-1-(((R)-2-amino-6,7-dihydro-5H-cyclopenta[b]pyridin-5-yl)amino)-1-oxopropan-2-yl)-4-(3-chlorophenyl)-1,2,5,6-tetrahydropyridine-2-carboxamide]: the IC50 in data set [1] is 7.41 nM.

In data set [1], `C[C@H](NC(=O)c1cc(-c2ccccc2)c[nH]1)C(=O)N[C@@H]1CCc2nc(N)ccc21` [Compound L020-IS-01, N—((S)-1-(((R)-2-amino-6,7-dihydro-5H-cyclopenta[b]pyridin-5-yl)amino)-1-oxopropan-2-yl)-4-phenyl-1H-pyrrole-2-carboxamide] yielded an IC50 of 15 nM.

As for `Nc1ccc2c(n1)CCC2NC(=O)[C@@H]1CCCN1C(=O)[C@H]1C[C@H](Cc2ccc(F)cc2)CN1` (stereo partly drawn) [Compound L031, (2S)—N-(2-amino-6,7-dihydro-5H-cyclopenta[b]pyridin-5-yl)-1-((2R,4S)-4-(4-fluorobenzyl)pyrrolidine-2-carbonyl) pyrrolidine-2-carboxamide], the midpoint of inhibition in data set [1], the IC50, lay at 4.49 nM.

Regarding `C[C@H](NC(=O)[C@H]1C[C@@H](c2ccccc2F)CCN1)C(=O)NC1CCc2nc(N)ccc21` (stereo partly drawn) [Compound L038-IS-02, (2R,4S)—N-((2S)-1-((2-amino-6,7-dihydro-5H-cyclopenta[b]pyridin-5-yl)amino)-1-oxopropan-2-yl)-4-(2-fluorophenyl) piperidine-2-carboxamide], the IC50 in data set [1] stood at 4.76 nM.

On to `CC(c1ccccc1)[C@H]1CN[C@@H](C(=O)N[C@@H](C)C(=O)NC2CCc3nc(N)ccc32)C1` (stereo partly drawn) [Compound L009, (2R,4S)—N-((2S)-1-((2-amino-6,7-dihydro-5H-cyclopenta[b]pyridin-5-yl)amino)-1-oxopropan-2-yl)-4-(1-phenylethyl) pyrrolidine-2-carboxamide], for which, in data set [1], the concentration for half-maximal inhibition (IC50) was determined as 7.08 nM.

Consider `COc1cc2ccccc2cc1C[C@@H]1CN[C@@H](C(=O)N[C@@H](C)C(=O)NC2CCc3nc(N)ccc32)C1` (stereo partly drawn) [Compound L015, (2R,4S)—N-((2S)-1-((2-amino-6,7-dihydro-5H-cyclopenta[b]pyridin-5-yl)amino)-1-oxopropan-2-yl)-4-((3-methoxynaphthalen-2-yl)methyl) pyrrolidine-2-carboxamide], for which the IC50 in data set [1] came out at 1.99 nM.

As for `C[C@H](NC(=O)[C@@H]1C=C(c2ccc(F)cc2C(F)(F)F)CCN1)C(=O)N[C@@H]1CCc2nc(N)ccc21` [Compound L073-IS-02, (S)-N-((S)-1-(((R)-2-amino-6,7-dihydro-5H-cyclopenta[b]pyridin-5-yl)amino)-1-oxopropan-2-yl)-4-(4-fluoro-2-(trifluoromethyl)phenyl)-1,2,5,6-tetrahydropyridine-2-carboxamide], in data set [1], the IC50 stood at 4.25 nM.

By IC50 is commonly meant the midpoint of a concentration-inhibition curve. Low readings indicate greater potency in that assay, high ones weaker potency in that assay. By AUC(0-t) is commonly meant the area under the concentration-time curve up to a stated or last time point. High values mean high exposure, low ones low exposure. The term half-life denotes the time in which the quantity being followed falls by half. For orientation: Cmax means the highest concentration seen after dosing.
